Laboratory results reported in PubChem BioAssay (NCI).
Several values for one entry are separate records, joined by “and”; a condition that tells them apart may be missing. Equal entries are not always repeated.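 Growth conditions: 96-well plates. Treatment: test compound, 48 hours, 5 concentrations. Analysis: linear interpolation between bracketing concentrations; unreached endpoints set to highest concentration. Abbreviation: GI50, concentration required for 50% inhibition of growth. The concentration for full growth arrest is given as TGI.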

Legend:
Experiment in all cases: DTP human tumour cell line panel, 48 h
MDA-MB-231 breast = system: MDA-MB-231 breast
COLO 205 colon = system: COLO 205 colon
SK-MEL-5 melanoma = system: SK-MEL-5 melanoma
EKVX NSCLC = system: EKVX NSCLC
786-0 renal = system: 786-0 renal
NCI/ADR-RES ovarian = system: NCI/ADR-RES ovarian
DU-145 prostate = system: DU-145 prostate
SF-539 CNS = system: SF-539 CNS
A498 renal = system: A498 renal
UO-31 renal = system: UO-31 renal
OVCAR-3 ovarian = system: OVCAR-3 ovarian
UACC-62 melanoma = system: UACC-62 melanoma
CAKI-1 renal = system: CAKI-1 renal
BT-549 breast = system: BT-549 breast
M14 melanoma = system: M14 melanoma
OVCAR-4 ovarian = system: OVCAR-4 ovarian
SN12C renal = system: SN12C renal
SF-295 CNS = system: SF-295 CNS
SK-MEL-2 melanoma = system: SK-MEL-2 melanoma
T-47D breast = system: T-47D breast
HOP-62 NSCLC = system: HOP-62 NSCLC
LOX IMVI melanoma = system: LOX IMVI melanoma
SNB-75 CNS = system: SNB-75 CNS
MDA-MB-435 = system: MDA-MB-435
HT29 colon = system: HT29 colon
RPMI-8226 leukemia = system: RPMI-8226 leukemia
U251 CNS = system: U251 CNS
TK-10 renal = system: TK-10 renal
SK-OV-3 ovarian = system: SK-OV-3 ovarian

With `O=c1[nH][nH]c(=O)c2c(O)c(-c3ccccc3)ncc12` the GI50 (MDA-MB-231 breast) was 37.7 µM and 113 µM, the TGI (MDA-MB-231 breast) was 385 µM and the GI50 (COLO 205 colon) was 41.6 µM and 130 µM. The TGI (COLO 205 colon) was 399 µM, the GI50 (SK-MEL-5 melanoma) was 45.8 µM and 175 µM and the TGI (SK-MEL-5 melanoma) was 357 µM. The GI50 (EKVX NSCLC) was 228 µM, the TGI (EKVX NSCLC) was 939 µM and the GI50 (786-0 renal) was 19.4 µM and 26.7 µM. For the same compound, the TGI (786-0 renal) was 42.1 µM and 90.4 µM, the GI50 (NCI/ADR-RES ovarian) was 36.7 µM and 73.2 µM and the TGI (NCI/ADR-RES ovarian) was 586 µM. The GI50 (DU-145 prostate) was 58.5 µM and 144 µM, the TGI (DU-145 prostate) was > 1000 µM and the GI50 (SF-539 CNS) was 32.6 µM. For the same compound, the TGI (SF-539 CNS) was 95.1 µM, the GI50 (A498 renal) was 24.9 µM and 32.2 µM and the TGI (A498 renal) was 61.7 µM and 119 µM. For the same compound, the GI50 (UO-31 renal) was 37.4 µM and 129 µM, the TGI (UO-31 renal) was 622 µM and the GI50 (OVCAR-3 ovarian) was 27.6 µM and 84 µM. The TGI (OVCAR-3 ovarian) was 84.2 µM and 468 µM, the GI50 (UACC-62 melanoma) was 34.2 µM and 73.5 µM and the TGI (UACC-62 melanoma) was 420 µM. For the same compound, the GI50 (CAKI-1 renal) was 83.8 µM and 145 µM, the TGI (CAKI-1 renal) was 748 µM and the GI50 (BT-549 breast) was 32.9 µM and 47.4 µM. The TGI (BT-549 breast) was 357 µM, the GI50 (M14 melanoma) was 32.8 µM and 63.3 µM and the TGI (M14 melanoma) was 385 µM. For the same compound, the GI50 (OVCAR-4 ovarian) was 46 µM and 110 µM, the TGI (OVCAR-4 ovarian) was 630 µM and the GI50 (SN12C renal) was 62.6 µM and 160 µM. For the same compound, the TGI (SN12C renal) was 623 µM, the GI50 (SF-295 CNS) was 40.7 µM and 69.3 µM and the TGI (SF-295 CNS) was 800 µM. The GI50 (SK-MEL-2 melanoma) was 26 µM and 79.1 µM, the TGI (SK-MEL-2 melanoma) was 67.3 µM and 373 µM and the GI50 (T-47D breast) was 27.6 µM and 60.5 µM. The TGI (T-47D breast) was 95.5 µM and 843 µM, the GI50 (HOP-62 NSCLC) was 27.9 µM and 86.9 µM and the TGI (HOP-62 NSCLC) was 87.3 µM and 471 µM. For the same compound, the GI50 (LOX IMVI melanoma) was 38.9 µM and 123 µM, the TGI (LOX IMVI melanoma) was 442 µM and the GI50 (SNB-75 CNS) was 35.4 µM and 37.6 µM. For the same compound, the TGI (SNB-75 CNS) was 353 µM, the GI50 (MDA-MB-435) was 44.1 µM and 205 µM and the TGI (MDA-MB-435) was > 1000 µM. The GI50 (HT29 colon) was 38.4 µM and 177 µM, the TGI (HT29 colon) was 674 µM and the GI50 (RPMI-8226 leukemia) was 79.2 µM and 283 µM. The TGI (RPMI-8226 leukemia) was 706 µM, the GI50 (U251 CNS) was 31.4 µM and 48.8 µM and the TGI (U251 CNS) was 79.8 µM and 405 µM. For the same compound, the GI50 (TK-10 renal) was 57 µM and 153 µM, the TGI (TK-10 renal) was 462 µM and the GI50 (SK-OV-3 ovarian) was 27.8 µM and 120 µM. The TGI (SK-OV-3 ovarian) was 93.3 µM and 488 µM.
